# Experimental data published in ChEMBL document CHEMBL5370547, “NSD3: Advances in cancer therapeutic potential and inhibitors research” (Eur J Med Chem, 2023).
# Starred links: 1 amine or outer side, 2 acyl side, 3 side chain; linkers in the order of their positions; H or OH if unused. Non-standard residues stand in square brackets, D forms with d. Residues, ends and D or L forms follow the SMILES beside them. X1 = CCC[C@H](C)[C@H](N[*:1])C(=O)[*:2]
# Legend:
# [1] = target: T1, Histone-lysine N-methyltransferase NSD3 (Homo sapiens, UniProt Q9BZ95); test: Inhibition of human NSD3 overexpressed in Escherichia coli BL21(DE3) using nucleosome as substrate by SPA analysis
# T1 sequence (Q9BZ95 whole entry): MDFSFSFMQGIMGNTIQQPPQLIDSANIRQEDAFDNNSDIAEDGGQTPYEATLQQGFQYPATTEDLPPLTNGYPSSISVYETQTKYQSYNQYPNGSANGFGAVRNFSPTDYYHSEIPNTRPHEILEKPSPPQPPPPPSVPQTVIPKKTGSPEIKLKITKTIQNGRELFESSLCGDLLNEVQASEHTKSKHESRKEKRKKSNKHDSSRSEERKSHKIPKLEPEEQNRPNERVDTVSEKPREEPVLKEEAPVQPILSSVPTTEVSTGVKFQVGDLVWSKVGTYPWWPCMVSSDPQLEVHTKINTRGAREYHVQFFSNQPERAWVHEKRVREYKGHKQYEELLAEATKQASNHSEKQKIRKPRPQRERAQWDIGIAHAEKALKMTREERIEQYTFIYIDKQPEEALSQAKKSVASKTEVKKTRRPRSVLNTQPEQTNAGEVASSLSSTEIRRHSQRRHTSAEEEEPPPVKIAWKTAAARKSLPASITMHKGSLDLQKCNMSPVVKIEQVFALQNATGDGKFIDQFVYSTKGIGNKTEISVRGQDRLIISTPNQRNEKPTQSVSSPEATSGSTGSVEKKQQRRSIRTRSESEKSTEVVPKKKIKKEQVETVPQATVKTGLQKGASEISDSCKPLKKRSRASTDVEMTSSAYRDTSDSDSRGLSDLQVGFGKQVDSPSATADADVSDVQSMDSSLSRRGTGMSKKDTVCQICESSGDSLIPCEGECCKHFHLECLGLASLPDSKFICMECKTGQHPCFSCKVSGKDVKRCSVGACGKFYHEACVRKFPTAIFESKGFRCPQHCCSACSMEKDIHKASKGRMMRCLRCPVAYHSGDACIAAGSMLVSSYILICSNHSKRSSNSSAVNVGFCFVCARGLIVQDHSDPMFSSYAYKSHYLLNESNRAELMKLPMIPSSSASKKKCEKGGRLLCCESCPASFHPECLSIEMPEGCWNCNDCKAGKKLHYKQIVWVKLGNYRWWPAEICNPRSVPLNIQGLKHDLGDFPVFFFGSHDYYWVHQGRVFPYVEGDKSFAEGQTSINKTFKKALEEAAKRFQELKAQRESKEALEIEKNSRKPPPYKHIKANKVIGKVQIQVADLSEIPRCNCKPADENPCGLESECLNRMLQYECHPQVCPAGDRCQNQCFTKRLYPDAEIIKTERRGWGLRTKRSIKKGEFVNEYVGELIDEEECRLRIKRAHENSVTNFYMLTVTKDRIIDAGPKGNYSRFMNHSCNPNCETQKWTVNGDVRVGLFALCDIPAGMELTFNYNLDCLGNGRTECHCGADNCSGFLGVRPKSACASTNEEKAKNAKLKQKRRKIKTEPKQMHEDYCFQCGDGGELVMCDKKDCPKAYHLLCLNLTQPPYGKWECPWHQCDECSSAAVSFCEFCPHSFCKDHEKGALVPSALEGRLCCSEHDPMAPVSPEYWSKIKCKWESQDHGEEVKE
# [2] = target: T2, Histone-lysine N-methyltransferase, H3 lysine-36 specific (Homo sapiens, UniProt Q96L73); test: Inhibition of human NSD1 overexpressed in Escherichia coli BL21(DE3) using nucleosome as substrate by SPA analysis
# T2 sequence (Q96L73 whole entry): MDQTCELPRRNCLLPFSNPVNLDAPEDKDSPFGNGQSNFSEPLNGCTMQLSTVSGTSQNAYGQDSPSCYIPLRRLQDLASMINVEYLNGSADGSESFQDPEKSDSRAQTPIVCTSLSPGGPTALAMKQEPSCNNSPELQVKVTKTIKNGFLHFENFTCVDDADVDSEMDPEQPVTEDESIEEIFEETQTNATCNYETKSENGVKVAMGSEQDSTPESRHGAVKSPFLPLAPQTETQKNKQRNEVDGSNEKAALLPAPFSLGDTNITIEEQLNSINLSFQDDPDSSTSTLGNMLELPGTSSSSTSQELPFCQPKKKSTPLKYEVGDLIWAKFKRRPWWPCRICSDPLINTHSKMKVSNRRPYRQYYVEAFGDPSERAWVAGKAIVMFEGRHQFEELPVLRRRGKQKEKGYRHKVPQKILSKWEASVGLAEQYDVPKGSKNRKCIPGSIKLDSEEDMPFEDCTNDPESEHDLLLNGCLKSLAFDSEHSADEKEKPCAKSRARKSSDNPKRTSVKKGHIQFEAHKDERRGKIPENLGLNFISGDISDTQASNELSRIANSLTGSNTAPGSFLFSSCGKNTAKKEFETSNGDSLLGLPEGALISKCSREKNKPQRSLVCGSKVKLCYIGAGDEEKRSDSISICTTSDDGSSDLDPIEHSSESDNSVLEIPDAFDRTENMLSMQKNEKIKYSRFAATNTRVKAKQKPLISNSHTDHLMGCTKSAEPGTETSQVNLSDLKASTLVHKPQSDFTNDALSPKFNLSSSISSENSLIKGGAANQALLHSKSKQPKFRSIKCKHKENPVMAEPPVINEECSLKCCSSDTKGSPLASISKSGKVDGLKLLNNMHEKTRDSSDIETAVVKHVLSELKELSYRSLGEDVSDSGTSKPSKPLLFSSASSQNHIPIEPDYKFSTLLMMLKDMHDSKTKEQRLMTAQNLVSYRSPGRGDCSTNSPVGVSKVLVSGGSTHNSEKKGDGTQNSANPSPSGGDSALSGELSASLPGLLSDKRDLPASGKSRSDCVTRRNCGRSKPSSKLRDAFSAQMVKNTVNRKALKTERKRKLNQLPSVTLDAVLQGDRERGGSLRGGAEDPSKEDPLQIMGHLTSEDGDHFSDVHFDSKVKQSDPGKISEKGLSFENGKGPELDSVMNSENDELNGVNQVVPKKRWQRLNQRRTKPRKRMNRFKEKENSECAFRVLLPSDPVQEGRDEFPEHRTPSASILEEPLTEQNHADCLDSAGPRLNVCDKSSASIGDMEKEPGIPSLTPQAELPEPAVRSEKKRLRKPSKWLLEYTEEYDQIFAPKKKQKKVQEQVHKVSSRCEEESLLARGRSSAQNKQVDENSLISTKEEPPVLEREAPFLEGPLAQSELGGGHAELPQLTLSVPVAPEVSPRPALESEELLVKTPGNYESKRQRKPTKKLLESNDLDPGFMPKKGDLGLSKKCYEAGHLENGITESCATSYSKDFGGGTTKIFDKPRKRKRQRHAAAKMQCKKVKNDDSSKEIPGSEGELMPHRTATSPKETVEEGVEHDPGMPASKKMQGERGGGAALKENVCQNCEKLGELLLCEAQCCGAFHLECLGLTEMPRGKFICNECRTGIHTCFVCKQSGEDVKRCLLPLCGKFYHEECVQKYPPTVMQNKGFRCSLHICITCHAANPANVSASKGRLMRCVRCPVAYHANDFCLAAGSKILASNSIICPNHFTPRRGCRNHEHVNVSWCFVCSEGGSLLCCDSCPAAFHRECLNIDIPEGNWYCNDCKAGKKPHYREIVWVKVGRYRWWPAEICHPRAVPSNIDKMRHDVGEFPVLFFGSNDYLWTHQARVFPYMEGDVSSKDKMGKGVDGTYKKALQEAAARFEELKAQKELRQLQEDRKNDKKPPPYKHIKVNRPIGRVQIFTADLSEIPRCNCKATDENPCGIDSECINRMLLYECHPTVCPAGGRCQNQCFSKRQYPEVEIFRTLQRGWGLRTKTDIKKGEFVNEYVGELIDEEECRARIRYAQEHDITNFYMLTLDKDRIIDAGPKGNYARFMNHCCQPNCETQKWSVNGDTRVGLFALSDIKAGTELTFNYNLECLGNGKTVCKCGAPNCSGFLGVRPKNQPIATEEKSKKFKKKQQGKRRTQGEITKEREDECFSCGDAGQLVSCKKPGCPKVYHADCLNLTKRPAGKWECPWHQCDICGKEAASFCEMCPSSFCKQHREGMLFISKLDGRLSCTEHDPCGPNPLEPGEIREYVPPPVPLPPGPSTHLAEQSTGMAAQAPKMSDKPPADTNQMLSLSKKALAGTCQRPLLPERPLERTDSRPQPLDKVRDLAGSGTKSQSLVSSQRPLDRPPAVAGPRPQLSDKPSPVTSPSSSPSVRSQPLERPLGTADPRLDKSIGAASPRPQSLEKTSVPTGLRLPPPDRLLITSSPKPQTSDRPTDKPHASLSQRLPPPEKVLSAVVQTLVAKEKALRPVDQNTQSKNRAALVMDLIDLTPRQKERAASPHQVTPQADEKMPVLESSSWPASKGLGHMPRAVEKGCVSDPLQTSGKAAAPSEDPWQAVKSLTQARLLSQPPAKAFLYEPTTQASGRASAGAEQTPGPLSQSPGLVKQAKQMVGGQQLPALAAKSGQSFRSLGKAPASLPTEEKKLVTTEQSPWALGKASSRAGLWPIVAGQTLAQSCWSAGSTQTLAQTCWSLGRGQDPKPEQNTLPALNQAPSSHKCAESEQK
# [3] = target: T3, Histone-lysine N-methyltransferase NSD2 (Homo sapiens, UniProt O96028); test: Inhibition of human NSD2 overexpressed in Escherichia coli BL21(DE3) using nucleosome as substrate by SPA analysis
# T3 sequence (O96028 whole entry): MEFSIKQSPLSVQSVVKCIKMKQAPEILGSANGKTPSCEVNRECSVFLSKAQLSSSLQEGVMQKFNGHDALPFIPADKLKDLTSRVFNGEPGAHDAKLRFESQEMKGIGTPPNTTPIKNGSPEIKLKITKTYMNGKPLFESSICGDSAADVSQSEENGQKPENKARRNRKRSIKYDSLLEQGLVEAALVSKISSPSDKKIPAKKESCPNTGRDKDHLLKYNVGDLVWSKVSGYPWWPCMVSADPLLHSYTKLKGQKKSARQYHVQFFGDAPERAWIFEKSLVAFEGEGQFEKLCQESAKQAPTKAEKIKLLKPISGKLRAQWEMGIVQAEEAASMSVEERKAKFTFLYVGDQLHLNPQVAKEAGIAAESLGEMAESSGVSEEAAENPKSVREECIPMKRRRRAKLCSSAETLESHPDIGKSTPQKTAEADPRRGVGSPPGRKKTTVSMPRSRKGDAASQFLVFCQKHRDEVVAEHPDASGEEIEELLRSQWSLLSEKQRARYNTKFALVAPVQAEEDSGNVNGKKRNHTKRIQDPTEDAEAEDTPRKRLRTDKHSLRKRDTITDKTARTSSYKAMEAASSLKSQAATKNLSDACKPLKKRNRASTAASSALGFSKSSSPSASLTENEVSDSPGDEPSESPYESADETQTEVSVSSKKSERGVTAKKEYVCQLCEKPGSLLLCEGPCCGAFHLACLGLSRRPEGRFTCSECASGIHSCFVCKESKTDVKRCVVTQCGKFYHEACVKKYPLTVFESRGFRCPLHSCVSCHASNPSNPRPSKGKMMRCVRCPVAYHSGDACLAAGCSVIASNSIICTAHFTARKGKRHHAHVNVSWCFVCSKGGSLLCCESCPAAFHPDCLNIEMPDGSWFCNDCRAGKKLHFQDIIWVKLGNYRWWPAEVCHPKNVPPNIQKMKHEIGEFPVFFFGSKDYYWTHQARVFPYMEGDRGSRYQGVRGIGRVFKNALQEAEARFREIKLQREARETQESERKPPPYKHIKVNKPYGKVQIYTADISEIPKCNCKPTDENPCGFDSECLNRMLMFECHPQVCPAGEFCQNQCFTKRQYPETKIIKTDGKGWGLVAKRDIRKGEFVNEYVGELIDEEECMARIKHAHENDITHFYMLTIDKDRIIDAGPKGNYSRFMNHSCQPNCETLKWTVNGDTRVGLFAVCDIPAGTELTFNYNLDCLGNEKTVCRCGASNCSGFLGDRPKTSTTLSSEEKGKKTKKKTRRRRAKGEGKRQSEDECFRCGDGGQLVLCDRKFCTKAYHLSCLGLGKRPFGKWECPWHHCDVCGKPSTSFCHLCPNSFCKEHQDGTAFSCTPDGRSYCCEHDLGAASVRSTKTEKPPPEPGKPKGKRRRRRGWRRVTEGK
# [4] = target: T1, Histone-lysine N-methyltransferase NSD3; test: Inhibition of N-terminal GST-fused recombinant human NSD3 (1021 to 1322 residues) expressed in Escherichia coli using SAM as substrate preincubated for 20 mins followed by substrate addition measured after 1 hrs by hotspot assay
# [5] = target: T1, Histone-lysine N-methyltransferase NSD3; test: Inhibition of NSD3 PWWP1 domain (unknown origin) assessed as […] by SPR analysis
# [6] = target: T1, Histone-lysine N-methyltransferase NSD3; test: Inhibition of NSD3 PWWP1 domain (unknown origin) by TR-FRET assay
# [7] = target: T1, Histone-lysine N-methyltransferase NSD3; test: Binding affinity to human NSD3 […] domain (247 to 402 residues) expressed in Escherichia coli assessed as dissociation constant
# [8] = target: von Hippel-Lindau disease tumor suppressor/Histone-lysine N-methyltransferase NSD3 (Homo sapiens, UniProt P40337+Q9BZ95); test: PROTAC activity at VHL/NSD3 […] domain in human MOLM-13 cells assessed as […] measured after 48 hrs by immunoblotting analysis; assay type: cell-based
# Sequence of von Hippel-Lindau disease tumor suppressor/Histone-lysine N-methyltransferase NSD3 (P40337 whole entry, one chain of several): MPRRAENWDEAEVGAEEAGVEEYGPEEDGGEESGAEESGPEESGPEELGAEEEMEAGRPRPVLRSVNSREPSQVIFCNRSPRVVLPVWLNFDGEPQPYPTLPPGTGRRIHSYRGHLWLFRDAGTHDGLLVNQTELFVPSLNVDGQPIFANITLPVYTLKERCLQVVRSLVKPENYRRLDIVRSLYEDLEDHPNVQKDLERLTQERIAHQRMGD
# EOL1 = test: Antiproliferative activity against human EOL1 cells assessed as cell growth inhibition measured after 8 days; assay type: functional, cell-based; details: EOL1, 192 h
# RS4-11 = test: Antiproliferative activity against human RS4-11 cells assessed as cell growth inhibition measured after 8 days; assay type: functional, cell-based; details: RS4-11, 192 h
# MM1.S = test: Antiproliferative activity against human MM1.S cells assessed as cell growth inhibition measured after 8 days; assay type: functional, cell-based; details: 192 h
# [9] = target: T2, Histone-lysine N-methyltransferase, H3 lysine-36 specific; test: Inhibition of N-terminal polyhistidine-tagged recombinant human NSD1 (1538 to 2696 residues) expressed in baculovirus infected insect cell using SAM as substrate preincubated for 20 mins followed by substrate addition measured after 1 hrs by hotspot assay
# [10] = Inhibition of C-terminal NanoLuc-tagged human NSD3 PWWP1 domain/ C-terminal HaloTag fused histone H3 (unknown origin) interaction transfected in human U2OS cells; assay type: cell-based
# MOLM-13 [11] = test: Antiproliferative activity against human MOLM-13 cells assessed as cell growth inhibition measured after 6 days by RealTime-Glow MT cell viability assay; assay type: functional, cell-based; details: MOLM-13, 144 h
# [12] = Antiproliferative activity against human RN 22 cells assessed as cell growth inhibition measured after 6 days by RealTime-Glow MT cell viability assay; assay type: functional, cell-based; details: RN 22, 144 h
# MOLM-13 [13] = test: Antiproliferative activity against human MOLM-13 cells assessed as cell growth inhibition measured after 6 days in presence of JQ1 by RealTime-Glow MT cell viability assay; assay type: functional, cell-based; details: MOLM-13, 144 h
# [14] = target: T1, Histone-lysine N-methyltransferase NSD3; test: Inhibition of N-terminal His-TEV-tagged human NSD3 (1054 to 1285 residues ) expressed in Escherichia coli using 3[H] SAM as substrate measured after 30 mins by biochemical assay
# [15] = target: T3, Histone-lysine N-methyltransferase NSD2; test: Inhibition of N-terminal GST-tagged human NSD2 (941 to 1240 residues ) expressed in Escherichia coli using 3[H] SAM as substrate measured after 30 mins by biochemical assay
compound,measurement,setting,value
CN1C(=O)[C@@]23C[C@]4([C@]56C[C@@]78SS[C@@](CO)(C(=O)N7[C@H]5Nc5ccccc56)N(C)C8=O)c5ccccc5N[C@@H]4N2C(=O)[C@]1(CO)SS3 [CHAETOCIN],IC50,[1],11 µM
same,IC50,[2],16 µM
same,IC50,[3],6 µM
same,IC50,[4],3.2 µM
Cc1noc(C)c1-c1ncn(C)c1-c1ccnc2cc(F)ccc12,Kd,[5],6.8 µM
same,IC50,[6],1.9 µM
Cc1ccc(C(=O)Nc2ccc(S(=O)(=O)O)c3cc(S(=O)(=O)O)cc(S(=O)(=O)O)c23)cc1NC(=O)c1cccc(NC(=O)Nc2cccc(C(=O)Nc3cc(C(=O)Nc4ccc(S(=O)(=O)O)c5cc(S(=O)(=O)O)cc(S(=O)(=O)O)c45)ccc3C)c2)c1 [SURAMIN],IC50,[1],12 µM
same,IC50,[3],21 µM
Cc1cc(CNCCCC(=O)NCCCCCCCCC(=O)N[C@H](C(=O)N2C[C@@H](O)C[C@@H]2C(=O)N[C@H](C)c2ccc(-c3scnc3C)cc2)C(C)(C)C)cc(C)c1-c1ncn(C)c1-c1ccnc2cc(F)ccc12,Kd,[7],1.3 µM
same,EC50,[8],4.9 µM
same,EC50,EOL1,2.3 µM
same,EC50,RS4-11,3.5 µM
same,EC50,MM1.S,3.3 µM
O=C1C(Cl)=C(NCCN2CCOCC2)C(=O)c2ncccc21,IC50,[9],0.11 µM
same,IC50,[4],0.26 µM
Cc1cc(CN)cc(C)c1-c1ncn(C)c1-c1ccncc1,Kd,[5],9.7 µM
same,IC50,[6],5.2 µM
Cc1cc(CN)cc(C)c1-c1ncn(C)c1-c1ccnc2cc(F)ccc12,IC50,[10],1.2 µM
same,IC50,MOLM-13 [11],26.8 µM
same,IC50,[12],13 µM
same,IC50,MOLM-13 [13],0.139 µM
Nc1ncnc2c1ncn2[C@@H]1O[C@H](C[C@@H](N)CC[C@H](N)C(=O)O)[C@@H](O)[C@H]1O [SINEFUNGIN],IC50,[2],46 µM
CCC[C@H](C)[C@H](NC(=O)[C@@H](NC(=O)CNC(C)=O)C(C)C)C(=O)N[C@@H](CCCNC(=N)N)C(=O)N[C@H](C(N)=O)[C@@H](C)CC (Ac-GV[X1]RI-NH2),IC50,[14],3.2 µM
same,IC50,[15],22 µM
